# Reference: paper PMC7286788 (ACS infectious diseases, 2019)
# Like-named read-outs stand apart in the source and are kept apart here. Marks after values point to notes of the source that are not given here. Starred links: 1 amine or outer side, 2 acyl side, 3 side chain; linkers in the order of their positions; H or OH if unused. Positions of bridges follow the written chain, without caps; N, C: chain ends. Non-standard residues stand in square brackets, D forms with d. Residues, ends and D or L forms follow the SMILES beside them. ξ: configuration not given here. *: point of attachment. X3 = O=C(C(N[*:1])c1ccc(OC2OC(CO)C(O)C(O)C2OC2OC(CO)C(O)C(O)C2O)cc1)[*:2]; ξPhg(3-Cl-4-OH) = NC(C(=O)O)c1ccc(O)c(Cl)c1; X2 = NC(=O)C(O[*:3])C(N[*:1])C(=O)[*:2]; Hpg = N[CH](C(=O)O)c1ccc(O)cc1; Orn = NCCC[CH](N)C(=O)O; X1 = CC(C)CC=CC=CC(=O)*
# T1: MurG (Mycolicibacterium smegmatis, UniProt A0R016)
# T1 sequence (A0R016 1-385): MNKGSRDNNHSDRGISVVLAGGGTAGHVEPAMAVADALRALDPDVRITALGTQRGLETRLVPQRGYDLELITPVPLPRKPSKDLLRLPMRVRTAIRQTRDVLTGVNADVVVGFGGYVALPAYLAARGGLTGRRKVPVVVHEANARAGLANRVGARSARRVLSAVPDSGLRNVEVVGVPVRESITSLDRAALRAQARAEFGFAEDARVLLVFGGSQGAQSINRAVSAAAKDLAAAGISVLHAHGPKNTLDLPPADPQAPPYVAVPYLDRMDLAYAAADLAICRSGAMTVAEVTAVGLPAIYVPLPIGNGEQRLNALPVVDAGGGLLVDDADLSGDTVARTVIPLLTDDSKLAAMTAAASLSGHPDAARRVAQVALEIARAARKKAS
# T2: MurG of M. smegmatis (Mycolicibacterium smegmatis, UniProt A0R016)
# T2 sequence (A0R016 1-385): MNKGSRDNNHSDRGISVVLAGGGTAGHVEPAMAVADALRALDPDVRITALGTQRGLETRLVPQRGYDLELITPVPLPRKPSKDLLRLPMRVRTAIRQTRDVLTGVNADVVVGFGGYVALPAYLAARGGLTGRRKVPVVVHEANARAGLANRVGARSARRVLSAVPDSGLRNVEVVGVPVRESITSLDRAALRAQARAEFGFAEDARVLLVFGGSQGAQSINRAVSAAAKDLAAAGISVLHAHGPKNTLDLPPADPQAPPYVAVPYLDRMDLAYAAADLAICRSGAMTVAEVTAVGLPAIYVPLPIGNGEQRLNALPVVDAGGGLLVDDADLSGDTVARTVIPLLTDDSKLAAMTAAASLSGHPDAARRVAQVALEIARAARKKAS
# What was measured:
# [1] = biological target: MraY/MurX (Mycolicibacterium smegmatis, UniProt A0R019); test: Substrate tolerance of MurX/MraY, P-60 of M. smegmatis; format: biochemical, Mycobacterium smegmatis; settings: P-60 of wild-type M. smegmatis (ATCC607)
# [2] = biological target: MsmegMraY (Mycolicibacterium smegmatis, UniProt A0R019); test: biochemical; format: biochemical, Mycobacterium smegmatis
# [3] = biological target: T3, MsmegMurG (Mycolicibacterium smegmatis, UniProt A0R016); test: biochemical; design: species or system Mycobacterium smegmatis
# [4] = in vitro; settings: African green monkey
# [5] = biological target: T4, HyMurG (Hydrogenivirga sp. 128-5-R1-1, UniProt A8US35); test: UV-Vis-based MurG assay; format: biochemical; settings: for IC50: read-out: IC50 against HyMurG via UV-Vis spectrometry, dose-response curves
# [6] = test system: M. smegmatis (ATCC607) and M. tuberculosis (H37Rv); test: Antimycobacterial activity, text summary for both species; format: cell-based, Mycobacterium spp.; settings: 50 μg/mL
# [7] = biological target: T3, MsmegMurG; test: biochemical; design: species or system Mycobacterium smegmatis; settings: for inhibition at 10 µM / inhibition at 50 µM / inhibition at 100 µM: read-out: (MsmegMurG) inhibition (%)
# [8] = biological target: T1, MurG; test: MurG kinetic parameters and mode of inhibition, enzyme source not stated; format: biochemical
# [9] = biological target: T4, HyMurG; test: HPLC-based MurG assay, dose-response, HyMurG; format: biochemical; settings: read-out: IC50 HyMurG; HPLC-based method; average of two-three experiments
# [10] = test system: M. smegmatis (ATCC607); test: MIC determination, resazurin, M. smegmatis; format: cell-based, Mycobacterium smegmatis; settings: 7H9 with 0.5% tween 80, 3 days at 37 °C
# [11] = test system: M. tuberculosis (H37Rv); test: MIC determination, M. tuberculosis; format: cell-based, Mycobacterium tuberculosis; settings: 7H9 containing OADC; 14 days
# [12] = test system: Vero cell
# [13] = Cytotoxicity against Vero cells; settings: African green monkey
# [14] = biological target: MurG, P-60 (M. smegmatis) (Mycolicibacterium smegmatis, UniProt A0R016); test: Competition reaction of UDP-GlcN-C6-FITC; format: biochemical, Mycobacterium smegmatis
# [15] = biological target: T2, MurG of M. smegmatis; test: Kinetic studies of MurG of M. smegmatis; format: biochemical, Mycobacterium smegmatis; settings: P-60 of M. smegmatis; donor 8
# [16] = biological target: T4, HyMurG; test: Kinetic studies with HyMurG; format: biochemical
# [17] = test system: HyMraY; test: Kinetic studies with HyMraY; format: biochemical, Hydrogenivirga sp.
# [18] = cited from earlier work
# [19] = test system: Vero cell; test: Cytotoxicity against Vero cells
# [20] = substrate: CC(=O)N[C@H]1[C@@H](OP(=O)(O)OP(=O)(O)OC[C@H]2O[C@@H](n3ccc(=O)[nH]c3=O)[C@H](O)[C@@H]2O)O[C@H](CO)[C@@H](O)[C@@H]1O; test: Kinetic studies of MurG of M. smegmatis; format: biochemical, Mycobacterium smegmatis; settings: other: apparent Km
# [21] = read-out: HthermMurG inhibition (%)
# [22] = read-out: IC50 MsmegMraY, HPLC-based method, average of two-three experiments
# [23] = read-out: IC50 MsmegMurG, HPLC-based method, average of two-three experiments
# Sequence of MsmegMraY (A0R019 whole entry): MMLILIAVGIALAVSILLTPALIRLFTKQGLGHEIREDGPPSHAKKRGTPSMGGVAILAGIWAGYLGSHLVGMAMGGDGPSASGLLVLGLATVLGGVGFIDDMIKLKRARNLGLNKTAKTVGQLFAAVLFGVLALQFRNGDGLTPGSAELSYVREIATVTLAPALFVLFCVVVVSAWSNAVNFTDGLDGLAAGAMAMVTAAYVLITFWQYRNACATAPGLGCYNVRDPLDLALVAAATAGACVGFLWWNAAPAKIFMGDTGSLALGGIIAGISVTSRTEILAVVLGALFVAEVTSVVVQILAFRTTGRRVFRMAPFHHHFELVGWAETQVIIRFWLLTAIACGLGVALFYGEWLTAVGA
# T4 sequence (A8US35 1-350): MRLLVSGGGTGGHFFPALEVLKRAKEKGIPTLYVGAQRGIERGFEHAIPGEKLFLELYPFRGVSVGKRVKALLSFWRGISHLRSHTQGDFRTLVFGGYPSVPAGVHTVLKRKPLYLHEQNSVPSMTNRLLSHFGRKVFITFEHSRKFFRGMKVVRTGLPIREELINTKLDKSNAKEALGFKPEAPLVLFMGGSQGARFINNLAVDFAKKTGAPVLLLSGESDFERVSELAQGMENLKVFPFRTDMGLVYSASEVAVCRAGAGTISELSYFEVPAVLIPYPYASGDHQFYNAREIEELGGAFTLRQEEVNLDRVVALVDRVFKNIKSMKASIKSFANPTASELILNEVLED
# Sequence of MraY/MurX (A0R019 whole entry): as the sequence (A0R019 whole entry) above
molecule,measurement,setting,value
C/C(=C/COP(=O)(O)O)CCCC(C)CCCC(C)CCCC(C)C (stereo not shown) [(2Z)-phytyl phosphate],Formation of lipid I-N^ε-derivatives,[1],did not provide the corresponding lipid I derivatives
"C[C@@H]([C@H](N)C(=O)N[C@H](C(=O)O)[C@H]1O[C@@H](n2ccc(=O)[nH]c2=O)[C@H](O)[C@@H]1O)[C@H](O)c1ccc(O)cn1 [Nikkomycin Z, nikkomycin Z]",IC50,[2],> 100 µM
same,IC50,[3],9.5 µM
same,IC50,[4],> 100 µg/mL
same,inhibition at 10 µM,[5]; [21],33%
same,inhibition at 50 µM,[5]; [21],50%
same,inhibition at 100 µM,[5]; [21],95%
same,IC50,[5],8.7 µM
same,Growth inhibition of M. smegmatis and M. tuberculosis,[6],did not inhibit growth
same,IC50,[7],9.5 µM
same,inhibition at 10 µM,[7],35%
same,inhibition at 50 µM,[7],45%
same,inhibition at 100 µM,[7],93%
same,Mode of MurG inhibition,[8],competitive inhibitory activity
same,IC50,[9],8.7 µM
"NC(=O)OC[C@H](O)[C@@H](O)[C@H](N)C(=O)N[C@H](C(=O)O)[C@H]1O[C@@H](n2cc(C(=O)O)c(=O)[nH]c2=O)[C@H](O)[C@@H]1O [Polyoxin D, polyoxin D]",M. smegmatis (ATCC607) MIC,[10],>50.0 µg/mL
same,IC50,[2]; [22],> 100 µM
same,IC50,[3]; [23],55 µM
same,M. tuberculosis (H37Rv) MIC,[11],>50.0 µg/mL
same,Vero cell cytotoxicity IC50,[12],>100 µg/mL
same,Growth inhibition of M. smegmatis and M. tuberculosis,[6],did not inhibit growth
same,IC50,[9],50.8 µM
"CC(C)CC=CC=CC(=O)NC(CC(N)=O)C(=O)NC1C(=O)NC(c2ccc(O)cc2)C(=O)NC(CCCN)C(=O)NC(C(C)O)C(=O)NC(c2ccc(O)cc2)C(=O)NC(c2ccc(O)cc2)C(=O)NC(C(C)O)C(=O)NC(Cc2ccccc2)C(=O)NC(CCCN)C(=O)NC(c2ccc(OC3OC(CO)C(O)C(O)C3OC3OC(CO)C(O)C(O)C3O)cc2)C(=O)NC(C(C)O)C(=O)NC(c2ccc(O)cc2)C(=O)NCC(=O)NC(CC(C)C)C(=O)NC(C)C(=O)NC(c2ccc(O)c(Cl)c2)C(=O)OC1C(N)=O (stereo not shown) [Ramoplanin A2, ramoplanin A2] (X1-N[X2][Hpg][Orn]T[Hpg][Hpg]TF[Orn][X3]T[Hpg]GLA[ξPhg(3-Cl-4-OH)]; ester 2-C; configuration not given here)",IC50,[2],> 100 µM
same,IC50,[5],22.4 µM
same,inhibition at 10 µM,[7],0%
same,inhibition at 50 µM,[7],100%
same,inhibition at 100 µM,[7],100%
same,IC50,[13],> 100 µg/mL
same,IC50,[9],22.4 µM
CC(=O)N[C@H]1[C@@H](OP(=O)(O)OP(=O)(O)OC[C@H]2O[C@@H](n3ccc(=O)[nH]c3=O)[C@H](O)[C@@H]2O)O[C@H](CO)[C@@H](O)[C@@H]1O [UDP-GlcNAc],IC50,[14],8.4 µM
same,UDP-GlcNAc required for 100%-disappearance of 9-C55,[14]; 8 at 375 μM,> 200 µM
"CN[C@H](CC(C)C)C(=O)N[C@H]1C(=O)N[C@@H](CC(N)=O)C(=O)N[C@H]2C(=O)N[C@H]3C(=O)N[C@H](C(=O)N[C@H](C(=O)O)c4cc(O)cc(O)c4-c4cc3ccc4O)[C@H](O)c3ccc(c(Cl)c3)Oc3cc2cc(c3O[C@@H]2O[C@H](CO)[C@@H](O)[C@H](O)[C@H]2O[C@H]2C[C@](C)(N)[C@H](O)[C@H](C)O2)Oc2ccc(cc2Cl)[C@H]1O [Vancomycin, vancomycin]",inhibition at 10 µM,[7],60%
same,inhibition at 50 µM,[7],67%
same,inhibition at 100 µM,[7],58%
same,IC50,[13],> 100 µg/mL
C55-lipid II-N^ε-C6-dansyl-FITC [Compound 9-C55],Vmax for 9-C55 transformation,[15],0.56 µM/min
same,Vmax for 9-C55 transformation,"[16]; HyMurG, donor 8",0.67 µM/min
Park’s nucleotide-N^ε-C6-dansylthiourea [Compound 1e],kcat of HyMraY for 1e,[17],0.38 s⁻¹
UDP-Glucosamine-C6-FITC [Compound 8],Km,"[8]; read-out: Km for UDP-GlcN-C6-FITC probe (8), 2e-C55 75 μM",54 µM
ristocetin A,M. smegmatis (ATCC607) MIC,[10],<0.39 µg/mL
same,Mode of MurX inhibition,[2],non-competitive inhibition against Park’s nucleotide and prenyl-P
same,IC50,[2]; [22],0.81 µM
same,IC50,[3]; [23],1.4 µM
same,"Binding affinity, times less than that of vancomycin",[18],about 3.0 times
same,Mode of HyMurG inhibition,"[16]; ristocetin A 5 μM, Michaelis-Menten plots",competes for the UDP-GlcNAc binding-site
same,M. tuberculosis (H37Rv) MIC,[11],0.5 µg/mL
same,Vero cell cytotoxicity IC50,[12],>100 µg/mL
same,IC50,[9],0.96 µM
tunicamycin,M. smegmatis (ATCC607) MIC,[10],6.25 to 12.5 µg/mL
same,MurX activity after addition of inhibitor,"[2]; 50 μM, P-60, protocol B",terminated completely
same,IC50,[2]; [22],2.9 µM
same,IC50,[3]; [23],> 100 µM
same,M. tuberculosis (H37Rv) MIC,[11],12.5 µg/mL
same,Inhibition of MurG function / lipid II formation,[5]; 50–100 μM,did not inhibit
same,Vero cell cytotoxicity IC50,[19],1.56 µg/mL
same,IC50,[9],> 100 µM
MurG of M. smegmatis (Mycolicibacterium smegmatis MC2 155) (protein) MNKGSRDNNHSDRGISVVLAGGGTAGHVEPAMAVADALRALDPDVRITALGTQRGLETRLVPQRGYDLELITPVPLPRKPSKDLLRLPMRVRTAIRQTRDVLTGVNADVVVGFGGYVALPAYLAARGGLTGRRKVPVVVHEANARAGLANRVGARSARRVLSAVPDSGLRNVEVVGVPVRESITSLDRAALRAQARAEFGFAEDARVLLVFGGSQGAQSINRAVSAAAKDLAAAGISVLHAHGPKNTLDLPPADPQAPPYVAVPYLDRMDLAYAAADLAICRSGAMTVAEVTAVGLPAIYVPLPIGNGEQRLNALPVVDAGGGLLVDDADLSGDTVARTVIPLLTDDSKLAAMTAAASLSGHPDAARRVAQVALEIARAARKKAS,Km,[20]; 2e-C55 37.5 μM,36 ± 10^b μM
same,Km,[20]; 2e-C55 75.0 μM,37 ± 3.0 µM
